One data set has as its system human red blood cells. The class given is cell-based. The note with it: red cells of human, 20 h. As to the method: (§1) The absorbance was measured using a Tecan M1000 Pro monochromator plate reader.
(1 picture or pasted object on this page, not shown here)

The subject of data set [1] is TGF-β1-induced fibronectin mRNA formation. More on the design: method as in earlier work. The note with it: cited from earlier work.
Data set [2] concerns the target transforming growth factor β1 (TGF-β1) type I receptor (ALK5). More on the design: method as in earlier work. Conditions: read-out: IC50 against ALK5; cited from earlier work.
In a further data set the test system is p38 kinase. Further details: method as in earlier work. Conditions: cited from earlier work.
Details of data set [3]: method as in earlier work. The note with it: 48 h XTT assay; read-out: CC50, cytotoxicity; cited from earlier work. Background: Tetrazolium dyes change colour on reduction, which living cells bring about.
The next data set deals with molecular beacon DNA. The data set is described as follows: DNA binding assay (molecular beacon melt curve). The note with it: compound 0-5 μM, DNA 400 nM. The text has this:
An attempt to characterize the mechanism of toxicity led to testing compounds’ interactions with DNA molecular beacons, which are short strands of DNA tagged with a donor–acceptor pair of fluorophores. The proximity between the fluorophores when the DNA strand is correctly folded results in no fluorescence from the donor; should a compound interfere with DNA folding, a change in the melting temperature will be observed.
A molecular beacon DNA sequence [FAM] CGTATATATATATTTTTATATATATACG [TAM] (Eurofin Genomics, Germany) labeled with fluorescein–tetramethylrhodamine donor–acceptor pair was dissolved in nuclease-free water at 100 μM, aliquoted, and kept frozen at −20 °C.
A working 2 μM DNA solution and compound dilution at 2 and 20 μM in hybridization buffer (10 mM Tris, 1 mM EDTA, 50 mM NaCl, 1.5 mM MgCl2 pH 8) was made. DNA was annealed by heating up to 95 °C on a heat block and allowing to cool down to room temperature. […]
Measurements on the prepared plates were made on an Applied Biosystems 7500/7500 FastReal-Time PCR System (ThermoFisher, UK). A standard melt curve experiment was setup where temperature was ramped up from 15 to 90 °C at a 1% step gradient and fluorescence was monitored for filters 1 (FAM) and 3 (TAMRA). Fluorescence first derivatives against temperature were exported to Microsoft Excel and peak fitting was done using Origin 2022B.

Data set [4] in a line: HEK293 toxicity, 96-well dose-response (UCL; MTT or resazurin, with or without recovery). The class given is cell-based, human. Conditions: human, HEK293 cells; across protocol variations (recovery yes/no, MTT/resazurin); read-out: CC50 HEK293. As to the method: The importance of balancing potency vs MRSA and cytotoxicity led us to examine a subset of compounds more thoroughly for toxicity against human embryonic kidney cell line HEK293. […] Dmax is a parameter that quantifies toxicity at the highest tested concentration (32 μg/mL for all compounds), calculated as reciprocal percentage of viable cells (100 – viability%), where cells either were allowed to recover or viability was measured immediately after treatment. […] Our efforts focused on trying to replicate the original toxicity experiments (by CO-ADD) with tamoxifen using a protocol modified for use with 96-well plates. Given the variability of protocols and results in the literature,[28] it was important to compare with a standard protocol we have reliably used in our own laboratories.[29]−[33] […] Truly “non-toxic” compounds might be expected to show Dmax < 50% for all experiment variations, e.g., 861. […] A large spread of Dmax values comparing recovery and non-recovery conditions larger than 20% is perhaps indicative of a mechanism of toxicity that persists beyond exposure, i.e., cytotoxic compounds that continue to induce toxicity as cells recover and restart dividing, for example, compounds 865, 870, 871, 980, and 981. […] This variability could be driven by interference of the compounds with the fluorescence readout or resorufin build-up as previously described.[27]
HEK293 cells (ATCC, UK) at passage 32 were a kind gift from Dr. Ben Allsop from the Translational Research Office at University College London. Cells were tested for mycoplasma using a MycoAlert Detection Kit (Lonza, Switzerland) as per manufacturer instructions, frozen stocks were stored in liquid nitrogen, and cells were re-tested whenever a new aliquot was thawed.
Cells were maintained in DMEM (Sigma-Aldrich, UK) supplemented with 10% heat-inactivated FBS (Sigma-Aldrich, UK), 1% GlutaMax (ThermoFisher, UK), and 1% sodium pyruvate (Lonza, UK) without antibiotics in an incubator at 37 °C and 5% CO2. Media was changed every 2 days, and cells were passaged every 3–4 days at a subcultivation ratio of 1:10, by detaching the cells with phenol-free TrypLE Express (ThermoFisher, UK), after washing with HBSS Ca^2+/Mg^2+ (ThermoFisher, UK). Up to 55 passages were used throughout the experiments.
(a) Cell seeding: At subculture, a dilute solution of cells was counted using Trypan Blue (Sigma-Aldrich, UK) and a hemocytometer. Cells were further diluted to 7000 or 50 000 cells/mL for experiments.
For recovery experiments, 700 cells (100 μL) were seeded in 96-well plates and incubated for 48 h while cells reached exponential phase.
For non-recovery experiments, 5000 cells (100 μL) were seeded in 96-well plates and incubated for 48 h while cells reached confluence. This is the same number of cells as per the CO-ADD protocol where 384-well plates were used, but we extended the growth time to 48 h to produce a similar confluency.
Stock solutions were diluted 100 times (to 1% DMSO) to 32 μg/mL in full medium (vortexed briefly) and then serially diluted using a digital pipet (Explorer, Eppendorf, Germany) at a dilution factor of 2 to a final concentration of […].
(c) Dosing experiments: At the specified time after seeding, media was removed from cells, cells were washed with HBSS Ca^2+/Mg^2+ (100 μL), and 100 μL of diluted compounds were added as per Supporting Information - Biology, Figure S4, and incubated for 24 h.
After treatment, solutions were removed, and cells were washed with HBSS Ca^2+/Mg^2+. For non-recovery experiments, viability was determined immediately as described below.
For recovery experiments, fresh media was added to plates (100 μL) and cells were returned to the incubator for another 72 h, after which viability was recorded as described below.
i. MTT assay: 3-[4,5-Dimethylthiazol-2-yl]-2,5-diphenyltetrazolium bromide (MTT) (Sigma-Aldrich, UK) was dissolved in sterile PBS at 5 mg/mL with sonication (20 min), protected from light. […]
(The colour change of resazurin is a common sign of viable cells or microbes.)

The nature of the next data set: in vitro. The note with it: human. The data set is classed as cell-based. As to the method:
HEK293 cells were counted manually in a Neubauer haemocytometer and then plated in the 384-well plates containing the compounds to give a density of 5000 cells/well in a final volume of 50 µL. DMEM supplemented with 10% FBS was used as growth media and the cells were incubated together with the compounds for 20 h at 37 °C in 5% CO2.
Cytotoxicity (or cell viability) was measured by fluorescence, ex: 560/10 nm, em: 590/10 nm (F560/590), after addition of 5 µL of 25 µg/mL resazurin (2.3 µg/mL final concentration) and after incubation for further 3 h at 37 °C in 5% CO2. The fluorescence intensity was measured using a Tecan M1000 Pro monochromator plate reader, using automatic gain calculation. […]
Human whole blood was washed three times with 3 volumes of 0.9% NaCl and then resuspended in same to a concentration of 0.5 x 10^8 cells/mL, as determined by manual cell count in a Neubauer haemocytometer. […]
Haemolysis was determined by measuring the supernatant absorbance at […] (OD405).
as §1
HC10 and HC50 (concentration at 10% and 50% haemolysis, respectively) were calculated by curve fitting the inhibition values vs. log(concentration) using a sigmoidal dose-response function with variable fitting values for top, bottom and slope. […]
Reading Plates - Haemolysis Clear 384w Corning 3680 […]

Converted amounts (≈) assume the structure as drawn.

As to `CC[C@H](C)[C@H](NC(=O)CN)C(=O)NCC(=O)N[C@@H](C)C(=O)N[C@H](C(=O)N[C@@H](CC(C)C)C(=O)N[C@@H](CCCCN)C(=O)N[C@H](C(=O)N[C@@H](CC(C)C)C(=O)N[C@H](C(=O)N[C@H](C(=O)NCC(=O)N[C@@H](CC(C)C)C(=O)N1CCC[C@H]1C(=O)N[C@@H](C)C(=O)N[C@@H](CC(C)C)C(=O)N[C@H](C(=O)N[C@@H](CO)C(=O)N[C@@H](Cc1c[nH]c2ccccc12)C(=O)N[C@H](C(=O)N[C@@H](CCCCN)C(=O)N[C@@H](CCCNC(=N)N)C(=O)N[C@@H](CCCCN)C(=O)N[C@@H](CCCNC(=N)N)C(=O)N[C@@H](CCC(N)=O)C(=O)N[C@@H](CCC(N)=O)C(N)=O)[C@@H](C)CC)[C@@H](C)CC)[C@@H](C)O)[C@@H](C)O)C(C)C)C(C)C` [Melittin], in the data set with human red blood cells, the “HC10 (concentration at 10% haemolysis)” value is on record as 2.7 µg/mL.

The IC50 is the concentration that gives 50% inhibition. Usually CC50 stands for the concentration at which the toxic effect on the cells reaches its halfway point. For the compound `NC(=O)c1ccc(-c2nc(-c3ccc4c(c3)OCO4)c(-c3ccccn3)[nH]2)cc1` [SB-431542], the IC50 in data set [1] is 50 nM; in data set [2] it was 94 nM. Also, in the data set with p38 kinase, the “inhibition of p38 kinase” value was “no inhibition”. Further, the 50% cytotoxic concentration (CC50) in data set [3] was more than 30000 nM.

For `COc1cccc2c1C(=O)c1c(O)c3c(c(O)c1C2=O)C[C@@](O)(C(=O)CO)C[C@@H]3O[C@H]1C[C@H](N)[C@H](O)[C@H](C)O1` [doxorubicin], the “effect on DNA molecular beacon melting temperature” value with molecular beacon DNA is listed as “dose–response behavior”.

As to `CC/C(=C(\c1ccccc1)c1ccc(OCCN(C)C)cc1)c1ccccc1` [tamoxifen, reference compound], in data set [4], the CC50 at 24 h lay within 5.3 to 15.5 µg/mL (≈ 14.3 to 41.7 µM). Further, in “in vitro”, it took 9 µg/mL (≈ 24.2 µM) to reach half-maximal cytotoxicity (CC50 at 20 h).

The values are drawn from PMC10714399, “Open Source Antibiotics: Simple Diarylimidazoles Are Potent against Methicillin-Resistant Staphylococcus aureus” (ACS Infectious Diseases, 2023).
